Test results as given in patent US7687620B2, “[1,4]diazepino[6,7,1-IJ]quinoline derivatives as antipsychotic and antiobesity agents” (Wyeth LLC, priority 2002, dated 2010).
pEC50, pKd, pKi: −log10 of the molar value. Where a name gives a salt, the structure may show the parent alone. Read-outs that look alike come from different tables or passages of the source.

Tests used:
[1] = biological target: T1, human 5-hydroxytryptamine2C (h5HT2C) receptor (Homo sapiens, UniProt P28335); test: 5HT2C receptor binding ([125I]DOI displacement, CHO cell membranes)
T1 construct: expressed in transfected cells; host or cells: CHO (Chinese Hamster Ovary) cells; membrane preparation
T1 sequence (P28335 33-458): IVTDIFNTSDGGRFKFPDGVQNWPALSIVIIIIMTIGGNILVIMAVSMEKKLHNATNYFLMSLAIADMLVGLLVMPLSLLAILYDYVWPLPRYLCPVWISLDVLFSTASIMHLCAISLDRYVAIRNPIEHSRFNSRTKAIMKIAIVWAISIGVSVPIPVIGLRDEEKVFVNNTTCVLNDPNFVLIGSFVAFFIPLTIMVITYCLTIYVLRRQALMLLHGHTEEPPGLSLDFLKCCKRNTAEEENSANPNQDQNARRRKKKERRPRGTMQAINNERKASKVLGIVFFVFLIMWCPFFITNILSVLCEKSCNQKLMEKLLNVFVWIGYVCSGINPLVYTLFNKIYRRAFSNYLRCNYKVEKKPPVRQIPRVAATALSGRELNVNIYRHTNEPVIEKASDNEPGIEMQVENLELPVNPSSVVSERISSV

human 5-HT2C receptor = biological target: T2, human 5-HT2C receptor (Homo sapiens, UniProt P28335); test: Calcium mobilization in response to 5-HT2C receptor agonists (FLIPR, CHO cells); format: cell-based; details: for Emax: CHO, read-out: 5-HT2C Function Emax (%) (5-HT, 100%); for pEC50: calcium mobilization, CHO cells stably expressing human 5-HT2C, read-out: 5-HT2C Function EC50
T2 sequence (P28335 33-458): T1 sequence (P28335 33-458)

SMILES | pKi [1] | further results
COc1cc(CC(C)N)c(OC)cc1I (stereo not shown) [[^125I]DOI, reference compound] | – | pKd ([1]; read-out: dissociation constant, KD of [125I]DOI at the human serotonin 5HT2C receptor, saturation binding with increasing concentrations of [125I]DOI): 9.40
Fc1ccc2c3c1C1CCCC1CN3CCNC2 (stereo not shown) [Example 26, 1-fluoro-4,5,6,7,9,9a,10,11,12,12a-decahydrocyclopenta[c][1,4]diazepino[6,7,1-ij]quinoline hydrochloride] | 7.70 | –
Brc1cc2c3c(c1)C1CCCCCC1CN3CCNC2 (stereo not shown) [Example 16, 2-bromo-4,5,6,7,9,9a,10,11,12,13,14,14a-dodecahydrocyclohepta[c][1,4]diazepino[6,7,1-ij]quinoline hydrochloride] | 5.64 | –
c1cc2c3c(c1)[C@H]1CCCCC[C@H]1CN3CCNC2 [Example 10, (9aR,14aS)-4,5,6,7,9,9a10,11,12,13,14,14a-dodecahydrocyclohepta[c][1,4]diazepino[6,7,1-ij]quinoline hydrochloride] | 7.25 | –
Clc1cc2c3c(c1)C1CCCCCC1CN3CCNC2 (stereo not shown) [Example 20, 2-chloro-4,5,6,7,9,9a,10,11,12,13,14,14a-dodecahydrocyclohepta[c][1,4]diazepino[6,7,1-ij]quinoline hydrochloride] | 6.43 | –
c1cc2c3c(c1)C1CCCC1CN3CCNC2 (single isomer, unassigned; (-)) [Example 4, (−)-4,5,6,7,9,9a10,11,12,12a-decahydrocyclopenta[c][1,4]diazepino[6,7,1-ij]quinoline] | 8.52 | Emax (human 5-HT2C receptor): 100%; pEC50 (human 5-HT2C receptor): 8.10
COc1cc2c3c(c1F)C1CCCCCC1CN3CCNC2 (stereo not shown) [Example 34, 1-fluoro-2-methoxy-4,5,6,7,9,9a,10,11,12,13,14,14a-dodecahydrocyclohepta[c][1,4]diazepino[6,7,1-ij]quinoline hydrochloride] | 6.60 | –
c1cc2c3c(c1)C1CCCCC1CN3CCNC2 (stereo not shown) [Example 6, 4,5,6,7,9a,10,11,12,13,13a-decahydro-9H-[1,4]diazepino[6,7,1-de]phenanthridine hydrochloride] | 7.62 | Emax (human 5-HT2C receptor): 60%; pEC50 (human 5-HT2C receptor): 7.19
FC(F)(F)c1ccc2c3c1C1CCCC1CN3CCNC2 (stereo not shown) [Example 30, 1-(trifluoromethyl)-4,5,6,7,9,9a,10,11,12,12a-decahydrocyclopenta[c][1,4]diazepino[6,7,1-ij]quinoline hydrochloride] | 7.23 | –
c1ccc(-c2cc3c4c(c2)C2CCCC2CN4CCNC3)cc1 (stereo not shown) [Example 22, 2-phenyl-4,5,6,7,9,9a,10,11,12,12a-decahydrocyclopenta[c][1,4]diazepino[6,7,1-ij]quinoline hydrochloride] | 7.06 | –
Fc1ccc2c3c1C1CCCCCC1CN3CCNC2 (stereo not shown) [Example 28, 1-fluoro-4,5,6,7,9,9a,10,11,12,13,14,14a-dodecahydrocyclohepta[c][1,4]diazepino[6,7,1-ij]quinoline hydrochloride] | 6.77 | –
CSc1ccc2c(c1)C(N1CCN(C)CC1)Cc1ccccc1S2 (stereo not shown) [Methiothepin, reference compound] | – | pKi ([1]; [125I]DOI binding, CHO membranes expressing h5HT2C, 95% confidence interval in brackets, read-out: Ki (95% confidence interval), reference compounds): 8.34
c1cc2c3c(c1)C1CCCCCC1CN3CCNC2 (stereo not shown) [Example 8, 4,5,6,7,9,9a,10,11,12,13,14,14a-dodecahydrocyclohepta[c][1,4]diazepino[6,7,1-ij]quinoline] | 7.89 | Emax (human 5-HT2C receptor): 70%; pEC50 (human 5-HT2C receptor): 6.58
c1cc2c3c(c1)[C@@H]1CCCCC[C@@H]1CN3CCNC2 [Example 12, (9aS,14aR)-4,5,6,7,9,9a,10,11,12,13,14,14a-dodecahydrocyclohepta[c][1,4]diazepino[6,7,1-ij]quinoline hydrochloride] | 6.93 | –
COc1cc2c3c(c1)C1CCCC1CN3CCNC2 (stereo not shown) [Example 24, 2-methoxy-4,5,6,7,9,9a,10,11,12,12a-decahydrocyclopenta[c][1,4]diazepino[6,7,1-ij]quinoline hydrochloride] | 6.70 | –
COc1cc2c3c(c1F)C1CCCC1CN3CCNC2 (stereo not shown) [Example 32, 1-fluoro-2-methoxy-4,5,6,7,9,9a,10,11,12,12a-decahydrocyclopenta[c][1,4]diazepino[6,7,1-ij]quinoline hydrochloride] | 6.65 | –
